From ChEMBL document CHEMBL1139202, “Inhibition of mycobacterial arylamine N-acetyltransferase contributes to anti-mycobacterial activity of Warburgia salutaris” (Bioorg Med Chem, 2007)
Calls of active or inactive are those of the source. The calls are words filed in the database; no cut-off is given here.

What was measured:
[1] = test system: Mycobacterium tuberculosis; assay: Growth inhibition of Mycobacterium tuberculosis H37Rv at 0.05 ug/mL after 21 days; type: functional, organism-based
[2] = biological target: T1, Arylamine N-acetyltransferase (Mycolicibacterium smegmatis, UniProt O86309); assay: Inhibition of Mycobacterium smegmatis recombinant NAT expressed in Escherichia coli BL21 at 0.5 mg/mL
T1 sequence (O86309 whole entry): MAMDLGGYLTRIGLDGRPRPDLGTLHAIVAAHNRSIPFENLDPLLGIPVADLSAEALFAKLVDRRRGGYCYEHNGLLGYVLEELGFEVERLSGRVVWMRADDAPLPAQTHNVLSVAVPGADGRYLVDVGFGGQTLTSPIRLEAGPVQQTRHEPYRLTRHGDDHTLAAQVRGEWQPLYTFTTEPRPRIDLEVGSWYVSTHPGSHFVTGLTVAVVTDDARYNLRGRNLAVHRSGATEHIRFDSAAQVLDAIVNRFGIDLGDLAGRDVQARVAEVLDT

SMILES	Activity [1]	inhibition at 500 µg/mL [2]
NNC(=O)c1ccncc1	Active	
CC(=O)O[C@@H]1C=C2C(=O)O[C@@H](O)[C@]2(O)[C@@]2(C)CCCC(C)(C)[C@H]12		35%
